Molecules are shown by their SMILES.

This assay has as its target human PDE10A2 (Homo sapiens (Human), UniProt Q9Y233). Description: PDE10 fluorescence polarization (IMAP FP) inhibition assay. The class given is biochemical. The settings on record: human PDE10A2, FAM-labeled cAMP substrate, read-out: PDE10A Ki. An outline of the steps: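 Cytoplasmic lysate of AD293 cells transiently expressing human PDE10A2 (diluted to ~20% substrate conversion) incubated 30 min at room temperature with 50 nM FAM-cAMP in Tris pH 7.2 buffer with MgCl2, DTT. Activity read by IMAP fluorescence polarization. 0% inhibition set with 1% DMSO, 100% with reference PDE10 inhibitor.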

human PDE10A2, sequence (Q9Y233 267-1055): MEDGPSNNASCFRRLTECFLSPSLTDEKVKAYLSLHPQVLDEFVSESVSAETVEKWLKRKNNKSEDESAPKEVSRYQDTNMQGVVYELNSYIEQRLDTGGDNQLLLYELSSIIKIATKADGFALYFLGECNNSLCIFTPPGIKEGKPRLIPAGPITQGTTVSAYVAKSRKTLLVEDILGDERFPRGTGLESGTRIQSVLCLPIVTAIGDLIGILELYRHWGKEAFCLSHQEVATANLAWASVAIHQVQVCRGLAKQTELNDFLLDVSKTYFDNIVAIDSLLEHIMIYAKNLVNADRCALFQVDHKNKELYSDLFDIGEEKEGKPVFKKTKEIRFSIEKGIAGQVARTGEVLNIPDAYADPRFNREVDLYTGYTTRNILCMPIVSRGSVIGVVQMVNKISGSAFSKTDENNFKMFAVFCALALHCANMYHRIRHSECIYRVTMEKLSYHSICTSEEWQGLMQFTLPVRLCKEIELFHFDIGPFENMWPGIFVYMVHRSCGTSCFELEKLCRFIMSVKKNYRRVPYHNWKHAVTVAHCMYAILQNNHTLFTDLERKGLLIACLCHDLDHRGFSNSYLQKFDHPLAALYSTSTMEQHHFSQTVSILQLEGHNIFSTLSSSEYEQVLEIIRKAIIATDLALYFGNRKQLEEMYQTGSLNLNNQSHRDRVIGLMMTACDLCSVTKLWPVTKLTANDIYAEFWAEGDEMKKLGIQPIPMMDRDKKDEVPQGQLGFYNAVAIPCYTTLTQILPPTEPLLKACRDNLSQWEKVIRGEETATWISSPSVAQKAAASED

A word on the Ki: it is the equilibrium dissociation constant of an inhibitor or competing ligand from its target. On to `COc1ccc([C@H]2C[C@@H]2COc2nc(C)ncc2-c2cc(C)n(C)c(=O)c2)nc1` [Example 113, 4-(4-(((1S,2S)-2-(5-methoxypyridin-2-yl)cyclopropyl)methoxy)-2-methylpyrimidin-5-yl)-1,6-dimethylpyridin-2(1H)-one], for which the Ki is 0.8 nM.
In the case of `Cc1ncc(-c2ccn(C)c(=O)c2)c(OC[C@H]2C[C@@H]2c2ccc3c(n2)CCC3)n1` [Example 114, 4-(4-(((1S,2S)-2-(6,7-dihydro-5H-cyclopenta[b]pyridin-2-yl)cyclopropyl)methoxy)-2-methylpyrimidin-5-yl)-1-methylpyridin-2(1H)-one], the inhibitory constant (Ki) worked out at 0.378 nM.
As for `COc1ccc([C@H]2C[C@@H]2COc2nc(C)ncc2-c2ccn(C)c(=O)c2SC)nc1` [Example 115, 4-(4-(((1S,2S)-2-(5-methoxypyridin-2-yl)cyclopropyl)methoxy)-2-methylpyrimidin-5-yl)-1-methyl-3-(methylthio)pyridin-2(1H)-one], the figure is 18 nM.
Consider `Cc1ccc([C@H]2C[C@@H]2COc2nc(C)ncc2-c2ccn(C(F)F)c(=O)c2)nc1` [Example 116, 1-(difluoromethyl)-4-(2-methyl-4-(((1S,2S)-2-(5-methylpyridin-2-yl)cyclopropyl)methoxy)pyrimidin-5-yl)pyridin-2(1H)-one], for which the Ki came to 1.83 nM.
As for `COc1ccc([C@H]2C[C@@H]2COc2nc(C)ncc2-c2ccn(C(F)F)c(=O)c2)nc1` [Example 117, 1-(difluoromethyl)-4-(4-(((1S,2S)-2-(5-methoxypyridin-2-yl)cyclopropyl)methoxy)-2-methylpyrimidin-5-yl)pyridin-2(1H)-one], the figure is 1.93 nM; as for `COCCn1ccc(-c2cnc(C)nc2OC[C@H]2C[C@@H]2c2ccc(OC)cn2)cc1=O` [Example 118, 1-(2-methoxyethyl)-4-(4-(((1S,2S)-2-(5-methoxypyridin-2-yl)cyclopropyl)methoxy)-2-methylpyrimidin-5-yl)pyridin-2(1H)-one], 0.553 nM.
As for `Cc1ccc([C@H]2C[C@@H]2COc2nc(C)ncc2-c2ccn(CCC#N)c(=O)c2)nc1` [Example 119, 3-(4-(2-methyl-4-(((1S,2S)-2-(5-methylpyridin-2-yl)cyclopropyl)methoxy)pyrimidin-5-yl)-2-oxopyridin-1(2H)-yl)propanenitrile], the figure is 1.58 nM; as for `Cc1ccc([C@H]2C[C@@H]2COc2nc(C)ncc2-c2ccn(CC#N)c(=O)c2)nc1` [Example 120, 2-(4-(2-methyl-4-(((1S,2S)-2-(5-methylpyridin-2-yl)cyclopropyl)methoxy)pyrimidin-5-yl)-2-oxopyridin-1(2H)-yl)acetonitrile], 1.06 nM; as for `COc1ccc([C@H]2C[C@@H]2COc2nc(C)ncc2-c2ccn(CC(F)(F)F)c(=O)c2)nc1` [Example 121, 4-(4-(((1S,2S)-2-(5-methoxypyridin-2-yl)cyclopropyl)methoxy)-2-methylpyrimidin-5-yl)-1-(2,2,2-trifluoroethyl)pyridin-2(1H)-one], 0.299 nM.
As for `C=CCn1ccc(-c2cnc(C)nc2OC[C@H]2C[C@@H]2c2ccc(OC)cn2)cc1=O` [Example 122, 1-allyl-4-(4-(((1S,2S)-2-(5-methoxypyridin-2-yl)cyclopropyl)methoxy)-2-methylpyrimidin-5-yl)pyridin-2(1H)-one], the figure is 0.458 nM; as for `C=CCn1ccc(-c2cnc(C)nc2OC[C@H]2C[C@@H]2c2ccc(C)cn2)cc1=O` [Example 123, 1-allyl-4-(2-methyl-4-(((1S,2S)-2-(5-methylpyridin-2-yl)cyclopropyl)methoxy)pyrimidin-5-yl)pyridin-2(1H)-one], 0.508 nM.
For the compound `COC(=O)Cn1ccc(-c2cnc(C)nc2OC[C@H]2C[C@@H]2c2ccc(OC)cn2)cc1=O` [Example 124, methyl 2-(4-(4-(((1S,2S)-2-(5-methoxypyridin-2-yl)cyclopropyl)methoxy)-2-methylpyrimidin-5-yl)-2-oxopyridin-1(2H)-yl)acetate], the inhibition constant (Ki) is 0.284 nM.
As for `[2H]C([2H])([2H])n1ccc(-c2cnc(C)nc2OC[C@H]2C[C@@H]2c2ccc(C)cn2)cc1=O` [Example 125, 1-methyl-4-(2-methyl-4-(((1S,2S)-2-(5-methylpyridin-2-yl)cyclopropyl)methoxy)pyrimidin-5-yl)pyridin-2(1H)-one], the figure is 1.66 nM; as for `Cc1ccc([C@H]2C[C@@H]2COc2nc(C)ncc2-c2ccn(CCO)c(=O)c2)nc1` [Example 126, 1-(2-hydroxyethyl)-4-(2-methyl-4-(((1S,2S)-2-(5-methylpyridin-2-yl)cyclopropyl)methoxy)pyrimidin-5-yr)pyridin-2(1H)-one], 1.01 nM.
As for `COc1ccc([C@H]2C[C@@H]2COc2nc(C)ncc2-c2ccn(CCO)c(=O)c2)nc1` [Example 127, 1-(2-hydroxyethyl)-4-(4-(((1S,2S)-2-(5-methoxypyridin-2-yl)cyclopropyl)methoxy)-2-methylpyrimidin-5-yl)pyridin-2(1H)-one], the figure is 0.64 nM.
As for `COc1ccc([C@H]2C[C@@H]2COc2nc(C)ncc2-c2ccn(C)c(=O)c2)nc1` [Example 128, 4-(4-(((1S,2S)-2-(5-methoxypyridin-2-yl)cyclopropyl)methoxy)-2-methylpyrimidin-5-yl)-1-methylpyridin-2(1H)-one], the figure is 1.54 nM.
Consider `COC(=O)Cn1ccc(-c2cnc(C)nc2OC[C@H]2C[C@@H]2c2ccc(C)cn2)cc1=O` [Example 129, methyl 2-(4-(2-methyl-4-(((1S,2S)-2-(5-methylpyridin-2-yl)cyclopropyl)methoxy)pyrimidin-5-yl)-2-oxopyridin-1(2H)-yl)acetate], for which the inhibitory constant (Ki) turned out to be 0.394 nM.
As for `COc1ccc([C@H]2C[C@@H]2COc2nc(C)ncc2-c2ccn(CC(F)F)c(=O)c2)nc1` [Example 130, 1-(2,2-difluoroethyl)-4-(4-(((1S,2S)-2-(5-methoxypyridin-2-yl)cyclopropyl)methoxy)-2-methylpyrimidin-5-yl)pyridin-2(1H)-one], the figure is 0.386 nM; as for `Cc1ncc(-c2cc(=O)n(C)cc2C)c(OC[C@H]2C[C@@H]2c2ccc3c(n2)CCC3)n1` [Example 131, 4-(4-(((1S,2S)-2-(6,7-dihydro-5H-cyclopenta[b]pyridin-2-yl)cyclopropyl)methoxy)-2-methylpyrimidin-5-yl)-l,5-dimethylpyridin-2(1H)-one], 0.033 nM.
As for `COc1ccc([C@H]2C[C@@H]2COc2nc(C)ncc2-c2cc(=O)n(C)cc2C2CC2)nc1` [Example 132, 5-cyclopropyl-4-(4-(((1S,2S)-2-(5-methoxypyridin-2-yl)cyclopropyl)methoxy)-2-methylpyrimidin-5-yl)-1-methylpyridin-2(1H)-one], the figure is 0.583 nM; as for `Cc1ccc([C@H]2C[C@@H]2COc2nc(C)ncc2-c2ccn(C3CC3)c(=O)c2)nc1` [Example 133, 1-cyclopropyl-4-(2-methyl-4-(((1S,2S)-2-(5-methylpyridin-2-yl)cyclopropyl)methoxy)pyrimidin-5-yl)pyridin-2(1H)-one], 0.935 nM; as for `COc1ccc([C@H]2C[C@@H]2COc2nc(C)ncc2-c2ccn(CC(=O)O)c(=O)c2)nc1` [Example 134, 2-(4-(4-(((1S,2S)-2-(5-methoxypyridin-2-yl)cyclopropyl)methoxy)-2-methylpyrimidin-5-yl)-2-oxopyridin-1(2H)-yl)acetic acid], 9.85 nM.
As for `Cc1ccc([C@H]2C[C@@H]2COc2nc(C)ncc2-c2cnn(C)c(=O)c2)nc1` [Example 135, 2-methyl-5-(2-methyl-4-(((1S,2S)-2-(5-methylpyridin-2-yl)cyclopropyl)methoxy)pyrimidin-5-yl)pyridazin-3(2H)-one], the figure is 6.31 nM; as for `COc1ccc([C@H]2C[C@@H]2COc2nc(C)ncc2-c2cnn(C)c(=O)c2)nc1` [Example 136, 5-(4-(((1S,2S)-2-(5-methoxypyridin-2-yl)cyclopropyl)methoxy)-2-methylpyrimidin-5-yl)-2-methylpyridazin-3(2H)-one], 5.74 nM; as for `COc1ccc([C@H]2C[C@@H]2COc2nc(C)ncc2-c2cnn(C)c(=O)c2Cl)nc1` [Example 137, 4-chloro-5-(4-(((1S,2S)-2-(5-methoxypyridin-2-yl)cyclopropyl)methoxy)-2-methylpyrimidin-5-yl)-2-methylpyridazin-3(2H)-one], 0.728 nM.
As for `COc1ccc([C@H]2C[C@@H]2COc2nc(C)ncc2-c2cc(=O)n(C)nc2OC)nc1` [Example 138, 6-methoxy-5-(4-(((1S,2S)-2-(5-methoxypyridin-2-yl)cyclopropyl)methoxy)-2-methylpyrimidin-5-yl)-2-methylpyridazin-3(2H)-one], the Ki amounted to 2.16 nM.
As for `COc1ccc([C@H]2C[C@@H]2COc2nc(C)ncc2-c2cc(=O)n(C)nc2O)nc1` [Example 139, 6-hydroxy-5-(4-(((1S,2S)-2-(5-methoxypyridin-2-yl)cyclopropyl)methoxy)-2-methylpyrimidin-5-yl)-2-methylpyridazin-3(2H)-one], the figure is 21.2 nM.
Regarding `Cc1ncc(-c2cc(=O)n(C)cn2)c(OC[C@H]2C[C@@H]2c2ccc3ccccc3n2)n1` [Example 140, 3-methyl-6-(2-methyl-4-(((1S,2S)-2-(quinolin-2-yl)cyclopropyl)methoxy)pyrimidin-5-yl)pyrimidin-4(3H)-one], the Ki came to 0.228 nM.
As for `Cc1ccc([C@H]2C[C@@H]2COc2nc(C)ncc2-c2cc(=O)n(C)cn2)nc1` [Example 141, 3-methyl-6-(2-methyl-4-(((1S,2S)-2-(5-methylpyridin-2-yl)cyclopropyl)methoxy)pyrimidin-5-yl)pyrimidin-4(3H)-one], the figure is 5.46 nM.
As for `COc1ccc([C@H]2C[C@@H]2COc2nc(C)ncc2-c2cc(=O)n(C)cn2)nc1` [Example 142, 6-(4-(((1S,2S)-2-(5-methoxypyridin-2-yl)cyclopropyl)methoxy)-2-methylpyrimidin-5-yl)-3-methylpyrimidin-4(3H)-one], the figure is 6.04 nM.
